Series [1] addresses T1, WRN protein (AA N517-P1238, ICE, Cat. S2212T-H56HZ) (Homo sapiens, UniProt Q14191).
T1 construct: WRN protein (AA N517-P1238, ICE, Cat. S2212T-H56HZ); purchased ICE S2212T-H56HZ
Description: Assay for WRN helicase activity (FORKF dsDNA unwinding, fluorescence). Format: biochemical. Conditions: inhibition of WRN helicase activity; 10 nM WRN, 10 nM FORKF, 2 mM ATP. Here is the method:
The assay buffer working solution prepared with RNAase-free water was as follows: 25 mM Tris (pH 7.5), 2 mM MgCl2, 50 mM NaCl, 0.02% BSA, 0.01% Tween, and 1 mM DTT. WRN protein (AA N517-P1238, ICE, Cat. S2212T-H56HZ) was obtained through protein expression and purification in vitro. Two single-stranded DNAs were synthesized: […]-BHQ2 (quencher), and (fluorophore) TAMRA-[…]. dsDNA (FORKF) was obtained via annealing of the two single-stranded DNAs. When the WRN protein bound to FORKF, the dsDNA was unwound, exposing the fluorophore, thereby generating fluorescence. 2 µL of compounds at different concentrations and 4 µL of WRN protein were added to a 384-well black plate (Greiner, Cat#784075). The plate was pre-incubated at room temperature for 20 minutes. 2 µL each of ATP and the FORKF substrate were added. The working concentrations of the WRN protein, FORKF, and ATP were 10 nM, 10 nM, and 2 mM, respectively. The plate was incubated at room temperature for 20 minutes. After the incubation was completed, the fluorescence value was read at Ex 540 nm/Em 590 nm using a BMG microplate reader (PHERAstar FSX).
The inhibition rate was calculated according to Formula 2, where RLUsample is the readout of the compound well, RLUmax is the readout of the DMSO control well, and RLUmin is the readout of the control well without the WRN protein. Curve fitting was performed via a four-parameter logistic model using GraphPad Prism software, and the IC50 value (the concentration of the compound when the inhibition rate was 50%) was calculated. Inhibition% = (1−(RLUsample−RLUmin)/(RLUmax−RLUmin)) × 100% [formula] Table 2. Results of inhibitory activity of test compounds against WRN helicase activity

In the next series the test system is HT-29 cells. Description: HT-29 cell proliferation inhibition assay (CellTiter-Glo). It counts as cell-based. Conditions: Homo sapiens, 96 h, 4 days, read-out: Inhibitory activity against HT-29 cell proliferation IC50. Here is the method: The culture conditions for HT-29 cells were as follows: DMEM + 10% FBS + 1% penicillin-streptomycin, and the cells were cultured in an incubator with 5% CO2 at 37°C. On the first day, the HT-29 cells in the exponential growth phase were collected and plated in 96-well cell culture plates at a density of 1000 cells/well (180 µL/well). The plates were cultured overnight in an incubator with 5% CO2 at 37°C. T0 wells were plated simultaneously during the plating process. The next day, 20 µL of compounds at different concentrations were added to each well (nine compound concentration gradients, one DMSO well, and one blank well; each compound concentration was plated in triplicate), and the final concentration of DMSO in each well was 0.1%. The plates were cultured in an incubator with 5% CO2 at 37°C for 4 days. On the same day of compound addition, the T0 plate was detected using the CellTiter-Glo Kit, and the detected value was recorded as RLU0. After the culture was completed, 100 µL of detection solution (Cell Viability Assay, Promega) was added to each well. The plates were incubated at room temperature for 10 minutes with slow shaking. The chemiluminescence reading was read using a BMG microplate reader (PHERAstar FSX). The results were processed according to Formula (4) to calculate the proliferation inhibition rate of compounds at each concentration. Curve fitting was performed via a four-parameter logistic model using GraphPad Prism software, and the GI50 value (the concentration of the compound when the proliferation inhibition rate was 50%) was calculated. In the formula, RLUcompound is the readout of the drug-treated group, RLUcontrol is the average value of the compound vehicle control group, and RLUBlank is the average value of the blank control group. [formula]

Series [2] in a line: Beagle dog pharmacokinetic assay. Format: in vivo, Beagle dogs. Particulars: po; Beagle dog plasma, i.g. (3 mg/kg). Here is the method: 7.1. Experimental animals: Male Beagle dogs, about 8-13 kg, 6 Beagle dogs/compound.
7.2. Experimental method: On the day of the experiment, the Beagle dogs were randomly grouped according to their body weights. The animals were fasted with water available for 14-18 h one day before the administration, and were fed 4 h after the administration. The animals were administered according to Table 6. Table 6. Administration information
Note: Vehicle for intravenous administration: 5% DMA + 5% Solutol + 90% Saline; and vehicle for intragastric administration: 5% DMSO + 95% (20% SBE-β-CD in Saline) (DMA: dimethylacetamide; Solutol: polyethylene glycol-15-hydroxystearate; Saline: normal saline; and MC: methylcellulose)
Before and after the administration, 1 ml of blood was taken from the jugular veins or limb veins and placed in an EDTAK2 centrifuge tube. The tube was centrifuged at 5000 rpm at 4°C for 10 min, and plasma was collected. The blood collection time points for the intravenous administration group and intragastric administration group were as follows: 0, 5 min, 15 min, 30 min, 1 h, 2 h, 4 h, 6 h, 8 h, 10 h, 12 h, 24 h, and 48 h. Before analysis and detection, all samples were stored at -80°C. The samples were analyzed quantitatively by LC-MS/MS. Table 7. Pharmacokinetic parameters of test compounds in Beagle dog plasma

SMILES strings stand for the structures. pIC50: −log10 of the molar value. Where only a bound is given, the exact number is not on record here.

T1 sequence (Q14191 517-1238, stated change not applied): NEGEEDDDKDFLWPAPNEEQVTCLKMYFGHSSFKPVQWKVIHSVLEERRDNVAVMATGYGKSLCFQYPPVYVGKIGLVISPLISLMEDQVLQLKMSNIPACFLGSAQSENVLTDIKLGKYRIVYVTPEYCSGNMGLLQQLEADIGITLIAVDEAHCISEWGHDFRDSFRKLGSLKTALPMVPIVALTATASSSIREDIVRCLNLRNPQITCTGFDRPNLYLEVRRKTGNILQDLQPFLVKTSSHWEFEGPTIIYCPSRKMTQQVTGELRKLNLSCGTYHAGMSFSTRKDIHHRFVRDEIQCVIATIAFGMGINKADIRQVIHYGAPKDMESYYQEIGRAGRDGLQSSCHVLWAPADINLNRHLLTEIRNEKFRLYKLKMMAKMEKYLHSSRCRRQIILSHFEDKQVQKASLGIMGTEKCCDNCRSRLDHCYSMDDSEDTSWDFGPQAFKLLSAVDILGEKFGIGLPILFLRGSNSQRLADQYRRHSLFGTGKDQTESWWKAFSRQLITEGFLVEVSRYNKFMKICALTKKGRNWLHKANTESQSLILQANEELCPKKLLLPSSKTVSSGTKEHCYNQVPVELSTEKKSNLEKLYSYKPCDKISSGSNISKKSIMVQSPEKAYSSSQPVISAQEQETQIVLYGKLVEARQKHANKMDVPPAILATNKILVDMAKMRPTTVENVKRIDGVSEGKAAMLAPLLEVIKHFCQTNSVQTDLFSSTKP

In the case of `Cc1ncnc(C(=O)N2[C@@H](C)CN(c3c4n(c5nc(C6=CCOCC6)nn5c3=O)[C@@H](C(=O)Nc3ccc(C(F)(F)F)cc3Cl)CCC4)C[C@@H]2C)c1O` [Compound 20-A], the pIC50 in series [1] was more than 7.70; in the series with HT-29 cells, not above 5.00. Further, the exposure AUC(0-t) in series [2] came to 19700 ng·h/mL.
As to `Cc1ncnc(C(=O)N2CCN(c3c4n(c5nc(C6=CCOCC6)nn5c3=O)[C@@H](C(=O)Nc3ccc(C(F)(F)F)cc3Cl)CCC4)CC2)c1O` [Compound 1-B], the results for the pIC50 (in series [1]; in the series on HT-29 cells) were more than 7.70 and not above 5.00, respectively. The compound also came in with an exposure AUC(0-t) in series [2] of 19900 ng·h/mL.
`Cc1ncnc(C(=O)N2CCN(c3c4n(c5nc(C6=CCOCC6)nn5c3=O)C(C(=O)Nc3ccc(C(F)(F)F)cc3Cl)CCC4)C[C@H]2C)c1O` (single isomer, unassigned) [Compound 8-B] gave a pIC50 in series [1] of more than 7.70.

The values are drawn from patent EP4755890A1, “OXO-TRICYCLIC DERIVATIVE AND PHARMACEUTICAL USE THEREOF” (Haisco Pharmaceutical Group Co., Ltd., priority 2023, dated 2025).
